Here are results for 3 molecules from paper PMC4240915, “Insights into the posttranslational assembly of the Mo-, S- and Cu-containing cluster in the active site of CO dehydrogenase of Oligotropha carboxidovorans” (Journal of Biological Inorganic Chemistry, 2014).

The target of test [1] is T1, CO dehydrogenase (FAD site on CoxM) (Afipia carboxidovorans, UniProt P19920).
T1 construct: native enzyme purified from wild-type O. carboxidovorans OM5; same complex as P1, as isolated with [CuSMoO2] cluster; with Carbon monoxide dehydrogenase large chain; Carbon monoxide dehydrogenase small chain
T1 sequence (P19920 1-288): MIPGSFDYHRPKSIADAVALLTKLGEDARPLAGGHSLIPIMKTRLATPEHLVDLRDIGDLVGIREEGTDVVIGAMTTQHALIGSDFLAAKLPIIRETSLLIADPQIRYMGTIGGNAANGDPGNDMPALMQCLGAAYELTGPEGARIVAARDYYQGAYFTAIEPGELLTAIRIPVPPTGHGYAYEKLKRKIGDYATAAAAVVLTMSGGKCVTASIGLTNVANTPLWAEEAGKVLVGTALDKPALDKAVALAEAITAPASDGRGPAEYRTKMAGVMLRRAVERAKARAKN
T1 sequence (P19919 1-809 partner): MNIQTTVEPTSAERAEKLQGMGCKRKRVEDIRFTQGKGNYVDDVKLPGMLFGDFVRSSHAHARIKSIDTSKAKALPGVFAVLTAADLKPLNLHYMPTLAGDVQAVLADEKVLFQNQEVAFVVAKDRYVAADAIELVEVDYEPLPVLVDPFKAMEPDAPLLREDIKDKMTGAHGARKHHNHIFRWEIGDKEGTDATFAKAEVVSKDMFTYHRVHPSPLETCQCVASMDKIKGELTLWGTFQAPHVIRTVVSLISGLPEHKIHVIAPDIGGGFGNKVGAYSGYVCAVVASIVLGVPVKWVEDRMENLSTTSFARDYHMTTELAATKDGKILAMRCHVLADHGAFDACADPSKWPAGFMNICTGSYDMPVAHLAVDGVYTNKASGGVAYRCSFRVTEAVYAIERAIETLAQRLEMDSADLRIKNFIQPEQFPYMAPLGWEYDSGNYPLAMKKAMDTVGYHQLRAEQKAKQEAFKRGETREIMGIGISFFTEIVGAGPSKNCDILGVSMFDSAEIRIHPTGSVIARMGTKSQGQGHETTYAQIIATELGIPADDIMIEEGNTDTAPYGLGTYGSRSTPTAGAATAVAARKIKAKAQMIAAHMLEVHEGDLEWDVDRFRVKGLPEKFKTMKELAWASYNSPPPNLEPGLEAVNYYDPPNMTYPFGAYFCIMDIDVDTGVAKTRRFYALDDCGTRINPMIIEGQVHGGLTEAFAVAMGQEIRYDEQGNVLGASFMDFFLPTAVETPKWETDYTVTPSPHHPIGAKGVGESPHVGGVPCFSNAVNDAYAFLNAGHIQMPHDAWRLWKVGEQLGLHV
T1 sequence (P19921 1-166 partner): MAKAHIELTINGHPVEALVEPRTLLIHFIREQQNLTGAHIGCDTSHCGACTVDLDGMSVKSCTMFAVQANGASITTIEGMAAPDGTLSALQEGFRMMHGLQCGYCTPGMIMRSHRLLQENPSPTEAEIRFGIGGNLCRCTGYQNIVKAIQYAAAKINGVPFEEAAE
Put plainly: spectrophotometric FAD determination at […] nm after trichloroacetic acid precipitation. It counts as binding. The settings on record: wild-type enzyme from CO-grown cells; co-purified cofactor.

Test [2] deals with T1, CO dehydrogenase (FAD site on CoxM). Put plainly: photometric assay of CO oxidation with INT as electron acceptor. It is filed as biochemical. The settings on record: electron acceptor with CO as electron donor, 30 °C; acceptor site (FAD) not shown in the paper.
In test [3] the target is T2, CO dehydrogenase (molybdenum site on CoxL) (Afipia carboxidovorans, UniProt P19919).
T2 construct: native enzyme purified from O. carboxidovorans OM5; Mo-, Fe-S- and FAD-containing; Cu and sulfane sulfur removed by KCN, then resulfurated to the [MoO2S] form (copper-free); with Carbon monoxide dehydrogenase medium chain; Carbon monoxide dehydrogenase small chain
T2 sequence (P19919 1-809): T1 sequence (P19919 1-809 partner)
T2 sequence (P19921 1-166 partner): T1 sequence (P19921 1-166 partner)
T2 sequence (P19920 1-288 partner): T1 sequence (P19920 1-288)
Description: Mo(V) EPR at […] K. It is filed as binding. The settings on record: 15 mM ligand, 50 mM HEPES pH 7.2, N2, 25 min room temperature; resulfurated copper-free [MoO2S] enzyme; covalent (mixed disulfide at Mo-bound sulfur).

For the molecule `Cc1cc2nc3c(=O)[nH]c(=O)nc-3n(C[C@H](O)[C@H](O)[C@H](O)COP(=O)(O)OP(=O)(O)OC[C@H]3O[C@@H](n4cnc5c(N)ncnc54)[C@H](O)[C@@H]3O)c2cc1C` [FAD], the “Wild type (CO)” value in test [1] was determined as 1.93 ± 0.08 mol per mol.

With `O=[N+]([O-])c1ccc(-[n+]2nc(-c3ccccc3)nn2-c2ccc(I)cc2)cc1` [INT, 1-phenyl-2-(4-iodo-phenyl)-3-(4-nitrophenyl)-2H-tetrazolium chloride], the “photometric assay of CO oxidation with INT as electron acceptor” value in test [2] is given as “CO-oxidizing activity was assayed photometrically employing INT”.

Take `N[C@@H](CS)C(=O)O` [L-cysteine]: the “Mo(V) EPR at 120 K” value in test [3] was “SH group of the studied sulfur compounds can bind to the equatorial sulfur of [MoO2S]”.
